Assay results from US10696615B2, “Prenylated hydroxystilbenes” (The University of Sydney, priority 2011, dated 2020).
≈ marks a conversion by molar mass, not a printed value. Where two headings read alike, the source gives them in different places. Each block holds one compound with its values, some of them ahead of it.

Columns and labels:
[1] = background statement; cited from earlier work
MRSA = experiment: MIC screening, broth microdilution (CLSI)
Streptococci = experiment: MIC screening, broth microdilution (CLSI)
Enterococci = experiment: MIC screening, broth microdilution (CLSI)
Haemophilus influenzae = experiment: MIC screening, broth microdilution (CLSI)
[2] = tested on: Acinetobacter calcoaceticus; experiment: MIC screening, broth microdilution (CLSI)
Escherichia coli = experiment: MIC screening, broth microdilution (CLSI)
Klebsiella pneumoniae = experiment: MIC screening, broth microdilution (CLSI)
Pseudomonas aeruginosa = experiment: MIC screening, broth microdilution (CLSI)
Staphylococcus aureus = experiment: MIC screening, broth microdilution (CLSI)

Structure (SMILES): Oc1ccc(/C=C/c2cc(O)cc(O)c2)cc1 [Resveratrol]
oral bioavailability [1]: very poor oral bioavailability

MIC (MRSA; Staphylococcus aureus (ATCC 43300), Exp 2): 0.25 mg/L (≈ 0.692 µM)
MIC (MRSA; Staphylococcus aureus (MRSA, Erythromycin & clindamycin-resistant), Exp 2): 8 mg/L (≈ 22.1 µM)
MIC (MRSA; Staphylococcus aureus, ATCC43300 / MRSA): 0.25 mg/L (≈ 0.692 µM)
MIC (MRSA; Staphylococcus aureus, MRSA): 8 mg/L (≈ 22.1 µM)
MIC (Streptococci; Streptococcus pneumoniae, ATCC49619, Streptococcus pneumoniae (ATCC 49619), Exp 1): 0.5 mg/L (≈ 1.38 µM)
MIC (Streptococci; Streptococcus pneumoniae, ATCC49619, Streptococcus pneumoniae (ATCC 49619), Exp 2): 0.5 mg/L (≈ 1.38 µM)
MIC (Streptococci; Streptococcus pneumoniae, Streptococcus pneumoniae (Erythromycin-resistant), Exp 1): 1 mg/L (≈ 2.77 µM)
MIC (Streptococci; Streptococcus pneumoniae, Streptococcus pneumoniae (Erythromycin-resistant), Exp 2): 1 mg/L (≈ 2.77 µM)
MIC (Streptococci; Streptococcus pyogenes, ATCC700942, Streptococcus pyogenes (ATCC 700942), Exp 1): 0.5 mg/L (≈ 1.38 µM)
MIC (Streptococci; Streptococcus pyogenes, ATCC700942, Streptococcus pyogenes (ATCC 700942), Exp 2): 0.5 mg/L (≈ 1.38 µM)
MIC (Enterococci; Enterococcus faecalis, ATCC29212, Enterococcus faecalis (ATCC 29212), Exp 1): 1 mg/L (≈ 2.77 µM)
MIC (Enterococci; Enterococcus faecalis, ATCC29212, Enterococcus faecalis (ATCC 29212), Exp 2): 1 mg/L (≈ 2.77 µM)
MIC (Enterococci; Enterococcus faecium, ATCC700221, Enterococcus faecium (ATCC 700221), Exp 1): > 64 mg/L
MIC (Enterococci; Enterococcus faecium, ATCC700221, Enterococcus faecium (ATCC 700221), Exp 2): > 64 mg/L
MIC (Haemophilus influenzae): < 0.0625 mg/L
MIC (Haemophilus influenzae; Exp 2): <0.0625 mg/L
MIC [2]: 4 mg/L (≈ 11.1 µM)
MIC ([2]; Exp 2): 4 mg/L (≈ 11.1 µM)
MIC (Escherichia coli; Exp 1): < 0.0625 mg/L
MIC (Escherichia coli; Exp 2): < 0.0625 mg/L
MIC (Klebsiella pneumoniae): 1 mg/L (≈ 2.77 µM)
MIC (Klebsiella pneumoniae; Exp 2): 1 mg/L (≈ 2.77 µM)
MIC (Pseudomonas aeruginosa): 1 mg/L (≈ 2.77 µM)
MIC (Pseudomonas aeruginosa; Exp 2): 1 mg/L (≈ 2.77 µM)
MIC (Staphylococcus aureus; ATCC29213, Staphylococcus aureus (ATCC 29213), Exp 1): 0.5 mg/L (≈ 1.38 µM)
MIC (Staphylococcus aureus; ATCC29213, Staphylococcus aureus (ATCC 29213), Exp 2): 0.25 mg/L (≈ 0.692 µM)
MIC (Staphylococcus aureus; Staphylococcus aureus (Levofloxacin-resistant), Exp 1): 64 mg/L (≈ 177 µM)
MIC (Staphylococcus aureus; Staphylococcus aureus (Levofloxacin-resistant), Exp 2): 64 mg/L (≈ 177 µM)
Structure (SMILES): C[C@H]1COc2c(N3CCN(C)CC3)c(F)cc3c(=O)c(C(=O)O)cn1c23 [Levofloxacin, reference compound]
